Measured values: patent publication US20100197585A1, “USE OF A RGD-PEPTIDE AND/OR PARATHYROID HORMONE (1-34) AS ANTI-HIV AGENT” (priority 2007, published 2010)
Where no end group is shown, it is not given here.

Key:
[1] = tested on: HIV-1IIIB; experiment: HIV-1 antiviral assay (cytopathic effect) in CEM-SS cells; settings: for antiviral activity of positive control compounds (HIV-1): CEM-SS cells; for reduction of the cytopathic effect (CPE) in HIV-1 infected CEM-SS cells: 10 micrograms per ml, HIV-1IIIB, 6 days post-infection, MTS
[2] = tested on: HCMV strain AD169; experiment: HCMV plaque formation assay in MRC-5 cells; settings: for inhibition of HCMV plaque formation as compared to the virus control: 10 micrograms per ml, 7-10 days
[3] = tested on: Primary Human endothelial cells (HUVEC); experiment: Endothelial cell migration assay; assay type: cell-based; settings: 10 micrograms per ml, 22 hours
[4] = tested on: HUVEC; experiment: Endothelial tube formation assay; assay type: cell-based, human; settings: 10 micrograms per ml, 20 hours
[5] = tested on: murine spleen cells; experiment: Th1/Th2 cytokine profiling assay; assay type: cell-based, Balb/c mice; settings: 10 micrograms per ml; Ovalbumin restimulation; 72 hours
[6] = tested on: Streptococcus pneumoniae; experiment: Streptococcus pneumoniae assay; settings: 10 micrograms per ml; 5x10^5 CFU/mL
[7] = tested on: Human A549 cells; experiment: Apoptosis prevention assay (C2 ceramide, Annexin-5); assay type: cell-based; settings: 10 micrograms per ml, 30 min pretreatment
[8] = tested on: hepatitis B virus (HBV) ayw strain; experiment: HBV experimental assay system (secreted HBV DNA, TaqMan PCR); assay type: cell-based; settings: 10 micrograms per ml; HepG2-2.2.15; six days; HBV DNA by TaqMan PCR
Text: HepG2-2.2.15 is a stable cell line containing the hepatitis B virus (HBV) ayw strain genome (ATCC Cat. No. CRL-11997). Antiviral compounds blocking any late step of viral replication such as transcription, translation, pregenome encapsidation, reverse transcription, particle assembly and release can be identified and characterized using this cell line. In this assay, an active compound will reduce the production of secreted HBV from cells, measured by utilizing real time quantitative PCR (TaqMan) assay to directly and accurately measure HBV DNA copies.
HepG2-2.2.15 cells were plated in 96-well microtiter plates. After 16-24 hours the confluent monolayer of HepG2-2.2.15 cells was washed and the medium was replaced with complete medium containing test peptides—10 micrograms per ml—in duplicate. […] Six days following the initial administration of the peptides, the cell culture supernatants was collected, treated with pronase and DNAse and then used in a real-time quantitative TaqMan PCR assay. The PCR-amplified HBV DNA was detected in real-time by monitoring increases in fluorescence signals that result from the exonucleolytic degradation of a quenched fluorescence probe molecule that hybridizes to the amplified HBV DNA. […] Antiviral activity was calculated from the reduction in HBV DNA levels (% virus control). […]

Compound | antiviral activity of positive control compounds (HIV-1) [1] | antiviral activity of positive control compound (HCMV) ([2]; positive control) | inhibition of the migration of human endothelial cells [3] | inhibition of the tube formation of human endothelial cells [4] | change of the production of IL-5 in murine spleen cells [5] | decrease of the production of IFN-γ in murine spleen cells [5] | increase of the production of IL-2 in murine spleen cells [5] | increase of the production of IL-4 in murine spleen cells [5] | induction of the production of TNF-alpha in murine spleen cells [5] | inhibition of the growth of Streptococcus pneumoniae [6] | reduction of the ceramide-induced apoptosis on human lung cells [7] | inhibition of HBV replication as compared to the virus control infection [8] | reduction of the cytopathic effect (CPE) in HIV-1 infected CEM-SS cells [1] | inhibition of HCMV plaque formation as compared to the virus control [2]
Cc1cn([C@H]2C[C@H](N=[N+]=[N-])[C@@H](CO)O2)c(=O)[nH]c1=O [AZT, zidovudine, reference compound] | expected levels of antiviral activity |  |  |  |  |  |  |  |  |  |  |  |  | 
Nc1nc(O)c2ncn(COC(CO)CO)c2n1 [Ganciclovir, reference compound] |  | expected levels of antiviral activity |  |  |  |  |  |  |  |  |  |  |  | 
CC[C@H](C)[C@H](NC(=O)[C@H](CCC(=O)O)NC(=O)[C@H](CO)NC(=O)[C@@H](NC(=O)[C@@H](N)CO)C(C)C)C(=O)N[C@@H](CCC(N)=O)C(=O)N[C@@H](CC(C)C)C(=O)N[C@@H](CCSC)C(=O)N[C@@H](Cc1cnc[nH]1)C(=O)N[C@@H](CC(N)=O)C(=O)N[C@@H](CC(C)C)C(=O)NCC(=O)N[C@@H](CCCCN)C(=O)N[C@@H](Cc1cnc[nH]1)C(=O)N[C@@H](CC(C)C)C(=O)N[C@@H](CC(N)=O)C(=O)N[C@@H](CO)C(=O)N[C@@H](CCSC)C(=O)N[C@@H](CCC(=O)O)C(=O)N[C@@H](CCCN=C(N)N)C(=O)N[C@H](C(=O)N[C@@H](CCC(=O)O)C(=O)N[C@@H](Cc1c[nH]c2ccccc12)C(=O)N[C@@H](CC(C)C)C(=O)N[C@@H](CCCN=C(N)N)C(=O)N[C@@H](CCCCN)C(=O)N[C@@H](CCCCN)C(=O)N[C@@H](CC(C)C)C(=O)N[C@@H](CCC(N)=O)C(=O)N[C@@H](CC(=O)O)C(=O)N[C@H](C(=O)N[C@@H](Cc1cnc[nH]1)C(=O)N[C@@H](CC(N)=O)C(=O)N[C@@H](Cc1ccccc1)C(=O)O)C(C)C)C(C)C [Peptide 2] |  |  | no effect | 28% | did not significantly change | 31.4% | 80.4% | 35.2% | did not significantly change | no effect | 23.9% | 0% | 18.1% | did not inhibit
CC(C)(C)NC(=O)[C@@H]1CN(Cc2cccnc2)CCN1C[C@@H](O)C[C@@H](Cc1ccccc1)C(=O)N[C@H]1c2ccccc2C[C@H]1O [indinavir, reference compound] | expected levels of antiviral activity |  |  |  |  |  |  |  |  |  |  |  |  | 
Gly-Arg-Gly-Asp-Asn-Pro-OH (GRGDNP-OH) [Peptide 1] |  |  |  | no effect | did not significantly change | did not significantly change | 58.8% | 55.6% | 23.7% | 100% | did not reduce | 36.4% | 100% | did not inhibit
